Tested on: T cells
Assay: IL-2 production by ELISA of T cell supernatants
Assay type: cell-based, mouse
Protocol: Supernatants from the proliferation assay were collected for ELISA prior to addition of ^3H-thymidine. The protocol used for ELISA followed the instructions from BD Pharmingen.
Supernatants from the proliferation assay were collected for ELISA prior to addition of ^3H thymidine. For profiling experiments, supernatants were collected as above, with variable time points. […] Cells were then washed with PBS, re-seeded in fresh medium and stimulated with 2 μg/ml plate bound anti-CD3 and 1 μg/ml soluble anti-CD28 for eight hours and supernatants were collected for analysis. Protocol used for ELISA follows BD Pharmingen instructions.

[1] = Example 4, ELISA, addition of PGE2
[2] = Example 7, 3 day TCR stimulated cells, ELISA, 1 nM PGE2

CCCCC[C@H](O)/C=C/[C@H]1[C@H](O)CC(=O)[C@@H]1C/C=C\CCCC(=O)O [PGE2, prostaglandin E2]
percentage of IL-2 inhibition, HPK1−/− T cells [1]: ~30%
percentage of IL-2 inhibition, wild type T cells [1]: ~84%
inhibition of IL-2 production, HPK1−/− T cells [2]: ~26%
inhibition of IL-2 production, wild type cells [2]: ~88%

Source: patent US20070087988A1, “Hematopoietic progenitor kinase 1 for modulation of an immune response” (New York University, priority 2005, published 2007)
